Converted amounts (≈) assume the structure as drawn. The source made the active and inactive calls. The rule behind the calls is not given here.
Experiments:
[1] = Toxicity in sea urchin embryo assessed as inhibition of embryo development before morula stage after 24 hrs by microscopy; details: hemicentrotus pulcherrimus
[2] = Toxicity in rabbit RBC assessed as hemolytic index; assay type: cell-based, Oryctolagus cuniculus; details: erythrocyte
[3] = tested on: Hemicentrotus pulcherrimus; assay: Inhibition of first cleavage in sea urchin embryo after 1.5 hrs by microscopy; assay type: functional
Patiria pectinifera [4] = assay: Effect on starfish embryo development assessed as abnormal embryo induction at bastula or gastula stage after 24 hrs by lactoorcein staining; assay type: functional
Patiria pectinifera [5] = assay: Inhibition of actin polymerization in starfish during embryogenesis
Patiria pectinifera [6] = assay: Effect on starfish embryo development assessed as occurrence of multinuclei by lactoorcein staining; assay type: functional
Patiria pectinifera [7] = assay: Effect on starfish embryo development assessed as incomplete cytokinesis by lactoorcein staining; assay type: functional

Compound | LD99 [1] | HI [2] | ED50 [3] | ED50 (Patiria pectinifera [4]) | Activity (Patiria pectinifera [5]) | Activity (Patiria pectinifera [6]) | Activity (Patiria pectinifera [7])
CC(C)CC(=O)C[C@@](C)(O)[C@H]1CC[C@H]2[C@@H]3C[C@H](OC4O[C@H](C)[C@@H](O)[C@H](OC5OC[C@@H](OC6O[C@H](CO)[C@H](O)[C@H](O)[C@H]6OC6O[C@H](C)[C@H](O)[C@H](OC7O[C@H](C)[C@H](O)[C@H](O)[C@H]7O)[C@H]6O)[C@H](O)[C@H]5OC5O[C@H](C)[C@@H](O)[C@H](O)[C@H]5O)[C@H]4O)[C@H]4C[C@@H](OS(=O)(=O)[O-])CC[C@]4(C)C3=CC[C@@]21C.[Na+] (stereo not given in full) | 5 µg/mL | 11400 | 15 µg/mL | 200 µg/mL | Active | – | –
CC(C)CC(=O)C[C@@](C)(O)[C@H]1CC[C@H]2[C@@H]3C[C@H](OC4O[C@H](C)[C@@H](O)[C@H](OC5OC[C@@H](OC6O[C@H](C)[C@@H](O)[C@H](O)[C@H]6OC6O[C@H](C)[C@H](O)[C@H](OC7O[C@H](C)[C@H](O)[C@H](O)[C@H]7O)[C@H]6O)[C@H](O)[C@H]5OC5O[C@H](C)[C@@H](O)[C@H](O)[C@H]5O)[C@H]4O)[C@H]4C[C@@H](OS(=O)(=O)[O-])CC[C@]4(C)C3=CC[C@@]21C.[Na+] (stereo not given in full) | 10 µg/mL | – | 15 µg/mL | 200 µg/mL | Active | – | –
CC(C)=CC(=O)C[C@@](C)(O)[C@H]1CC[C@H]2[C@@H]3C[C@H](OC4O[C@H](C)[C@@H](O)[C@H](OC5OC[C@@H](OC6O[C@H](C)[C@@H](O)[C@H](O)[C@H]6OC6O[C@H](C)[C@H](O)[C@H](O)[C@H]6O)[C@H](O)[C@H]5OC5O[C@H](C)[C@@H](O)[C@H](O)[C@H]5O)[C@H]4O)[C@H]4C[C@@H](OS(=O)(=O)[O-])CC[C@]4(C)C3=CC[C@@]21C.[Na+] (stereo not given in full) | 50 µg/mL | < 2420 | 50 µg/mL | 200 µg/mL | Active | – | –
CC(C)=CC(=O)C[C@@](C)(O)[C@H]1CC[C@H]2[C@@H]3C[C@H](OC4O[C@H](C)[C@@H](O)[C@H](OC5OC[C@@H](OC6O[C@H](CO)[C@H](O)[C@H](O)[C@H]6OC6O[C@H](C)[C@H](O)[C@H](O)[C@H]6O)[C@H](O)[C@H]5OC5O[C@H](C)[C@@H](O)[C@H](O)[C@H]5O)[C@H]4O)[C@H]4C[C@@H](OS(=O)(=O)[O-])CC[C@]4(C)C3=CC[C@@]21C.[Na+] (stereo not given in full) | 5 µg/mL | – | 15 µg/mL | 100 µg/mL | Active | – | –
CC(C)CC(=O)C[C@@](C)(O)[C@H]1CC[C@H]2[C@@H]3C[C@H](OC4O[C@H](C)[C@@H](O)[C@H](OC5OC[C@@H](OC6O[C@H](C)[C@@H](O)[C@H](O)[C@H]6OC6O[C@H](C)[C@H](O)[C@H](OC7O[C@H](C)[C@H](O)[C@H](O)[C@H]7O)[C@H]6O)[C@H](O)[C@H]5OC5O[C@H](C)[C@@H](O)[C@H](O)[C@H]5O)[C@H]4O)[C@H]4C[C@@H](O)CC[C@]4(C)C3=CC[C@@]21C (stereo not given in full) | 10 µg/mL | < 2550 | 50 µg/mL (≈ 38.6 µM) | 100 µg/mL (≈ 77.2 µM) | Active | – | –
CC(C)C(C)C(=O)C[C@@](C)(O)[C@H]1CC[C@H]2[C@@H]3C[C@H](OC4O[C@H](C)[C@@H](O)[C@H](OC5OC[C@@H](OC6O[C@H](CO)[C@H](O)[C@H](O)[C@H]6OC6O[C@H](C)[C@H](O)[C@H](O)[C@H]6O)[C@H](O)[C@H]5OC5O[C@H](C)[C@@H](O)[C@H](O)[C@H]5O)[C@H]4O)[C@H]4C[C@@H](OS(=O)(=O)[O-])CC[C@]4(C)C3=CC[C@@]21C.[Na+] (stereo not given in full) | 2 µg/mL | 31400 | 5 µg/mL | 50 µg/mL | Active | Active | Active
CC(C)CC(=O)C[C@@](C)(O)[C@H]1CC[C@H]2[C@@H]3C[C@H](O[C@@H]4O[C@H](C)C(=O)[C@H](OC5O[C@H](C)[C@@H](OC6O[C@H](C)[C@H](O)[C@H](O)[C@H]6OC6O[C@H](C)[C@H](O)[C@H](O)[C@H]6O)[C@H](O)[C@H]5OC5O[C@H](C)[C@@H](O)[C@H](O)[C@H]5O)[C@H]4O)[C@H]4C[C@@H](OS(=O)(=O)[O-])CC[C@]4(C)C3=CC[C@@]21C.[Na+] (stereo not given in full) | 5 µg/mL | 17700 | 15 µg/mL | 200 µg/mL | Active | – | –
CC(C)=CC(=O)C[C@@](C)(O)[C@H]1CC[C@H]2[C@@H]3C[C@H](OC4O[C@H](CO)[C@@H](O)[C@H](OC5O[C@H](C)[C@@H](OC6O[C@H](C)[C@@H](O)[C@H](O)[C@H]6OC6O[C@H](C)[C@H](O)[C@H](O)[C@H]6O)[C@H](O)[C@H]5OC5O[C@H](C)[C@@H](O)[C@H](O)[C@H]5O)[C@H]4O)[C@H]4C[C@@H](OS(=O)(=O)[O-])CC[C@]4(C)C3=CC[C@@]21C.[Na+] (stereo not given in full) | 5 µg/mL | – | 10 µg/mL | 50 µg/mL | Active | – | –
CC(C)C(C)C(=O)C[C@@](C)(O)[C@H]1CC[C@H]2[C@@H]3C[C@H](OC4O[C@H](C)[C@@H](O)[C@H](OC5OC[C@@H](OC6O[C@H](CO)[C@H](O)[C@H](O)[C@H]6OC6O[C@H](C)[C@H](O)[C@H](OC7O[C@H](C)[C@H](O)[C@H](O)[C@H]7O)[C@H]6O)[C@H](O)[C@H]5OC5O[C@H](C)[C@@H](O)[C@H](O)[C@H]5O)[C@H]4O)[C@H]4C[C@@H](OS(=O)(=O)[O-])CC[C@]4(C)C3=CC[C@@]21C.[Na+] (stereo not given in full) | 2 µg/mL | 21500 | 5 µg/mL | 100 µg/mL | Active | – | –
CC(C)=CC(=O)C[C@@](C)(O)[C@H]1CC[C@H]2[C@@H]3C[C@H](OC4O[C@H](C)[C@@H](O)[C@H](OC5OC[C@@H](OC6O[C@H](C)[C@@H](O)[C@H](O)[C@H]6OC6O[C@H](C)[C@H](O)[C@H](O)[C@H]6O)[C@H](O)[C@H]5OC5O[C@H](C)[C@@H](O)[C@H](O)[C@H]5O)[C@H]4O)[C@H]4C[C@@H](O)CC[C@]4(C)C3=CC[C@@]21C (stereo not given in full) | 10 µg/mL | – | 10 µg/mL (≈ 8.72 µM) | 100 µg/mL (≈ 87.2 µM) | Active | – | –
CC(C)CC(=O)C[C@@](C)(O)[C@H]1CC[C@H]2[C@@H]3C[C@H](OC4O[C@H](C)[C@@H](O)[C@H](OC5OC[C@@H](OC6O[C@H](CO)[C@@H](O)[C@H](O)[C@H]6OC6O[C@H](C)[C@H](O)[C@H](O)[C@H]6O)[C@H](O)[C@H]5OC5O[C@H](C)[C@@H](O)[C@H](O)[C@H]5O)[C@H]4O)[C@H]4C[C@@H](OS(=O)(=O)[O-])CC[C@]4(C)C3=CC[C@@]21C.[Na+] (stereo not given in full) | 2 µg/mL | – | 15 µg/mL | 200 µg/mL | Active | – | –
CC(C)C(C)C(=O)C[C@@](C)(O)[C@H]1CC[C@H]2[C@@H]3C[C@H](OC4O[C@H](C)[C@@H](O)[C@H](OC5OC[C@@H](OC6O[C@H](C)[C@@H](O)[C@H](O)[C@H]6OC6O[C@H](C)[C@H](O)[C@H](OC7O[C@H](C)[C@H](O)[C@H](O)[C@H]7O)[C@H]6O)[C@H](O)[C@H]5OC5O[C@H](C)[C@@H](O)[C@H](O)[C@H]5O)[C@H]4O)[C@H]4C[C@@H](OS(=O)(=O)[O-])CC[C@]4(C)C3=CC[C@@]21C.[Na+] (stereo not given in full) | 5 µg/mL | 10700 | 10 µg/mL | 200 µg/mL | Active | – | –
CC(C)CC(=O)C[C@@](C)(O)[C@H]1CC[C@H]2[C@@H]3C[C@H](OC4O[C@H](C)[C@@H](O)[C@H](OC5OC[C@@H](OC6O[C@H](CO)[C@H](O)[C@H](O)[C@H]6OC6O[C@H](C)[C@H](O)[C@H](OC7O[C@H](CO)[C@H](O)[C@H](O)[C@H]7O)[C@H]6O)[C@H](O)[C@H]5OC5O[C@H](C)[C@@H](O)[C@H](O)[C@H]5O)[C@H]4O)[C@H]4C[C@@H](OS(=O)(=O)[O-])CC[C@]4(C)C3=CC[C@@]21C.[Na+] (stereo not given in full) | 10 µg/mL | 5100 | 30 µg/mL | 200 µg/mL | Active | – | –
CC(C)CC(=O)C[C@@](C)(O)[C@H]1CC[C@H]2[C@@H]3C[C@H](OC4O[C@H](CO)[C@@H](O)[C@H](OC5O[C@H](C)[C@@H](OC6O[C@H](C)[C@@H](O)[C@H](O)[C@H]6OC6O[C@H](C)[C@H](O)[C@H](O)[C@H]6O)[C@H](O)[C@H]5OC5O[C@H](C)[C@@H](O)[C@H](O)[C@H]5O)[C@H]4O)[C@H]4C[C@@H](OS(=O)(=O)[O-])CC[C@]4(C)C3=CC[C@@]21C.[Na+] (stereo not given in full) | 5 µg/mL | – | 5 µg/mL | 50 µg/mL | Active | – | –
CC(C)CC(=O)C[C@@](C)(O)[C@H]1CC[C@H]2[C@@H]3C[C@H](OC4O[C@H](C)[C@@H](O)[C@H](OC5OC[C@@H](OC6O[C@H](CO)[C@H](O)[C@H](O)[C@H]6OC6O[C@H](C)[C@H](O)[C@H](O)[C@H]6O)[C@H](O)[C@H]5OC5O[C@H](C)[C@@H](O)[C@H](O)[C@H]5O)[C@H]4O)[C@H]4C[C@@H](OS(=O)(=O)[O-])CC[C@]4(C)C3=CC[C@@]21C.[Na+] (stereo not given in full) | 5 µg/mL | 22000 | 10 µg/mL | 100 µg/mL | Active | – | –
CC(=O)[C@H]1CC[C@H]2[C@@H]3C[C@H](OC4O[C@H](C)[C@@H](O)[C@H](OC5OC[C@@H](OC6O[C@H](CO)[C@H](O)[C@H](O)[C@H]6OC6O[C@H](C)[C@H](O)[C@H](O)[C@H]6O)[C@H](O)[C@H]5OC5O[C@H](C)[C@@H](O)[C@H](O)[C@H]5O)[C@H]4O)[C@H]4C[C@@H](OS(=O)(=O)[O-])CC[C@]4(C)C3=CC[C@]12C.[Na+] (stereo not given in full) | > 50 µg/mL | < 2270 | > 50 µg/mL | 100 µg/mL | Active | – | –
CC(C)CC(=O)C[C@@](C)(O)[C@H]1CC[C@H]2[C@@H]3C[C@H](OC4O[C@H](C)[C@@H](O)[C@H](OC5OC[C@@H](OC6O[C@H](C)[C@@H](O)[C@H](O)[C@H]6OC6O[C@H](C)[C@H](O)[C@H](O)[C@H]6O)[C@H](O)[C@H]5OC5O[C@H](C)[C@@H](O)[C@H](O)[C@H]5O)[C@H]4O)[C@H]4C[C@@H](OS(=O)(=O)O)CC[C@]4(C)C3=CC[C@@]21C.N (stereo not given in full) | 5 µg/mL | – | 15 µg/mL | 200 µg/mL | Active | – | –
